Earlier results as cited in PMC10323144, “Garbage in, garbage out: how reliable training data improved a virtual screening approach against SARS-CoV-2 MPro” (Frontiers in Pharmacology, 2023).
Structures can show the parent of a compound that is named as a salt.

System: MPro
Conditions: compiled from peer-reviewed sources (287 compounds) ref the 18 original articles; cited from earlier work

Row | Compound | Class (MPro activity class)
1 | O=C(C=Cc1ccc(O)c(O)c1)OC1CC(O)(C(=O)O)CC(OC(=O)C=Cc2ccc(O)c(O)c2)C1O (stereo not drawn) [Isochlorogenic acid A] | 0 (compounds with IC50 > 20 μM, percentage inhibition <80% at 20 µM or 50 μM, or percentage enzyme inhibition <50% at 10 µM were labelled as INACTIVE)
2 | CCC(=O)Nc1ccc(N(Cc2ccsc2)C(=O)Cn2nnc3ccccc32)cc1 [ALP-POS-c59291d4-2] | 1 (Compounds with IC50 < 10 µM or with a percentage of enzyme inhibition >50% at 10 µM were labelled as ACTIVE)
3 | COc1cccc2[nH]c(C(=O)NC(CC(C)C)C(=O)NC(CC3CCNC3=O)C(=O)c3nc4ccccc4s3)cc12 (stereo not drawn) [5h] | 1 (Compounds with IC50 < 10 µM or with a percentage of enzyme inhibition >50% at 10 µM were labelled as ACTIVE)
4 | O=c1cc(-c2ccc(O)c(O)c2)oc2cc(O[C@@H]3O[C@H](CO)[C@@H](O)[C@H](O)[C@H]3O)cc(O)c12 [Luteoloside] | 0 (compounds with IC50 > 20 μM, percentage inhibition <80% at 20 µM or 50 μM, or percentage enzyme inhibition <50% at 10 µM were labelled as INACTIVE)
5 | O=S(=O)(CC1CS1)c1ccc(Oc2ccccc2)cc1 (stereo not drawn) [SB-3CT] | 0 (compounds with IC50 > 20 μM, percentage inhibition <80% at 20 µM or 50 μM, or percentage enzyme inhibition <50% at 10 µM were labelled as INACTIVE)
6 | O=c1cc(-c2ccc(O)cc2)oc2cc(O)c(O)c(O)c12 [Scutellarein] | 1 (Compounds with IC50 < 10 µM or with a percentage of enzyme inhibition >50% at 10 µM were labelled as ACTIVE)
7 | CCNc1ncc(C#N)cc1CN1CCN(C(=O)CCl)CC1 [DAR-DIA-fb20be43-4] | 1 (Compounds with IC50 < 10 µM or with a percentage of enzyme inhibition >50% at 10 µM were labelled as ACTIVE)
8 | C[C@@H]1O[C@@H](OC[C@H]2O[C@@H](OCCc3ccc(O)c(O)c3)[C@H](O)[C@@H](O)[C@@H]2OC(=O)/C=C/c2ccc(O)c(O)c2)[C@H](O)[C@H](O)[C@H]1O [Forsythoside A] | 1 (Compounds with IC50 < 10 µM or with a percentage of enzyme inhibition >50% at 10 µM were labelled as ACTIVE)
9 | CCc1nc(-c2cccc(C)c2)c(-c2ccnc(NC(=O)c3ccccc3)c2)s1 [TAK-715] | 0 (compounds with IC50 > 20 μM, percentage inhibition <80% at 20 µM or 50 μM, or percentage enzyme inhibition <50% at 10 µM were labelled as INACTIVE)
10 | CC(C)CC(NC(=O)OCc1ccccc1)C(=O)NC(CC(C)C)C(=O)NC(CC1CCNC1=O)C(=O)C(=O)NC1CC1 (stereo not drawn) [UAWJ248] | 1 (Compounds with IC50 < 10 µM or with a percentage of enzyme inhibition >50% at 10 µM were labelled as ACTIVE)
11 | Cc1ccncc1NC(=O)Cc1cccc(Br)c1 [JAN-GHE-83b26c96-12] | 0 (compounds with IC50 > 20 μM, percentage inhibition <80% at 20 µM or 50 μM, or percentage enzyme inhibition <50% at 10 µM were labelled as INACTIVE)
12 | C[C@@]1(c2cc(-c3cncnc3)c(F)cc2F)CCSC(N)=N1 [LY2811376] | 0 (compounds with IC50 > 20 μM, percentage inhibition <80% at 20 µM or 50 μM, or percentage enzyme inhibition <50% at 10 µM were labelled as INACTIVE)
13 | COc1ccc(NC(=O)c2ccc(C(=N)N(C)C)cc2)c(C(=O)Nc2ccc(Cl)cn2)c1 [BETRIXABAN] | 0 (compounds with IC50 > 20 μM, percentage inhibition <80% at 20 µM or 50 μM, or percentage enzyme inhibition <50% at 10 µM were labelled as INACTIVE)
14 | N#CC[C@H](C1CCCC1)n1cc(-c2ncnc3[nH]ccc23)cn1 [Ruxolitinib] | 0 (compounds with IC50 > 20 μM, percentage inhibition <80% at 20 µM or 50 μM, or percentage enzyme inhibition <50% at 10 µM were labelled as INACTIVE)
15 | NC[C@H]1O[C@H](O[C@H]2[C@H](O[C@@H]3O[C@H](CO)[C@@H](O)[C@H]3O)[C@@H](O)[C@H](N)C[C@@H]2N)[C@H](N)[C@@H](O)[C@@H]1O [Ribostamycin] | 0 (compounds with IC50 > 20 μM, percentage inhibition <80% at 20 µM or 50 μM, or percentage enzyme inhibition <50% at 10 µM were labelled as INACTIVE)
16 | CC1OC(OCC2OC(OCCc3ccc(O)c(O)c3)C(O)C(OC(=O)C=Cc3ccc(O)c(O)c3)C2O)C(O)C(O)C1O (stereo not drawn) [Forsythoside I] | 1 (Compounds with IC50 < 10 µM or with a percentage of enzyme inhibition >50% at 10 µM were labelled as ACTIVE)
17 | CCCCCOc1cc(Cl)cc(-c2cc(-c3c[nH]c(=O)[nH]c3=O)cn(-c3cccnc3)c2=O)c1 [compound 13] | 1 (Compounds with IC50 < 10 µM or with a percentage of enzyme inhibition >50% at 10 µM were labelled as ACTIVE)
18 | CC(=O)ON=C1C(=O)N(Cc2cc(Cl)ccc2Cl)c2ccc(Cl)cc21 [LDN-57444] | 0 (compounds with IC50 > 20 μM, percentage inhibition <80% at 20 µM or 50 μM, or percentage enzyme inhibition <50% at 10 µM were labelled as INACTIVE)
19 | COC(=O)C1=CO[C@@H](O[C@@H]2O[C@H](CO)[C@@H](O)[C@H](O)[C@H]2O)[C@@H]2[C@@H](C)[C@@H](O)C[C@H]12 [Loganin] | 0 (compounds with IC50 > 20 μM, percentage inhibition <80% at 20 µM or 50 μM, or percentage enzyme inhibition <50% at 10 µM were labelled as INACTIVE)
20 | CC(=O)N[C@@H](CC(C)C)C(=O)N[C@@H](CC(C)C)C(=O)N[C@H](C=O)CCCNC(=N)N [Leupeptin] | 0 (compounds with IC50 > 20 μM, percentage inhibition <80% at 20 µM or 50 μM, or percentage enzyme inhibition <50% at 10 µM were labelled as INACTIVE)

Row | Compound | Class (MPro activity class)
21 | O=C(NC(Cc1ccccc1)C(=O)NC(CC1CCNC1=O)C(O)S(=O)(=O)O)OCc1ccccc1 (stereo not drawn) [UAWJ247] | 1 (Compounds with IC50 < 10 µM or with a percentage of enzyme inhibition >50% at 10 µM were labelled as ACTIVE)
22 | N=C(N)c1ccc2cc(OC(=O)c3ccc(N=C(N)N)cc3)ccc2c1 [Nafamostat] | 0 (compounds with IC50 > 20 μM, percentage inhibition <80% at 20 µM or 50 μM, or percentage enzyme inhibition <50% at 10 µM were labelled as INACTIVE)
23 | CC/C(=C(\c1ccccc1)c1ccc(OCCN(C)C)cc1)c1ccccc1 [TAMOXIFEN CITRATE] | 0 (compounds with IC50 > 20 μM, percentage inhibition <80% at 20 µM or 50 μM, or percentage enzyme inhibition <50% at 10 µM were labelled as INACTIVE)
24 | Cc1cnc(C(=O)N[C@H]2CCCCC/C=C\[C@@H]3C[C@@]3(C(=O)NS(=O)(=O)C3CC3)NC(=O)[C@@H]3C[C@@H](Oc4nc5ccccc5c5ccccc45)CN3C2=O)cn1 [Paritaprevir] | 0 (compounds with IC50 > 20 μM, percentage inhibition <80% at 20 µM or 50 μM, or percentage enzyme inhibition <50% at 10 µM were labelled as INACTIVE)
25 | O=C(Cn1ccnc1[N+](=O)[O-])NCc1ccccc1 [BENZNIDAZOLE] | 0 (compounds with IC50 > 20 μM, percentage inhibition <80% at 20 µM or 50 μM, or percentage enzyme inhibition <50% at 10 µM were labelled as INACTIVE)
26 | Maraviroc | 0 (compounds with IC50 > 20 μM, percentage inhibition <80% at 20 µM or 50 μM, or percentage enzyme inhibition <50% at 10 µM were labelled as INACTIVE)
27 | CC(C)CC(NC(=O)OCc1ccccc1)C(=O)NC(C=O)CC1CCNC1=O (stereo not drawn) [GC373] | 1 (Compounds with IC50 < 10 µM or with a percentage of enzyme inhibition >50% at 10 µM were labelled as ACTIVE)
28 | Cc1cccc(C2CN(C(=O)CCl)Cc3ccccc32)c1 (stereo not drawn) [NIR-THE-c331be7a-6] | 1 (Compounds with IC50 < 10 µM or with a percentage of enzyme inhibition >50% at 10 µM were labelled as ACTIVE)
29 | CC(C)(C)OC(=O)Nc1cccn(C(CC2CC2)C(=O)NC(CC2CCNC2=O)C(=O)C(=O)NC2CC2)c1=O (stereo not drawn) [compound 13b] | 1 (Compounds with IC50 < 10 µM or with a percentage of enzyme inhibition >50% at 10 µM were labelled as ACTIVE)
30 | Cc1c(-c2ccnn2C)cc(C(=O)NCc2ccc(S(C)(=O)=O)cn2)c(=O)n1-c1cccc(C(F)(F)F)c1 [Alvestat] | 0 (compounds with IC50 > 20 μM, percentage inhibition <80% at 20 µM or 50 μM, or percentage enzyme inhibition <50% at 10 µM were labelled as INACTIVE)
31 | O=C(O)C1OC(Oc2cc(O)c3c(=O)cc(-c4ccccc4)oc3c2)C(O)C(O)C1O [Chrysin-7-O-β-D-glucoronide] | 0 (compounds with IC50 > 20 μM, percentage inhibition <80% at 20 µM or 50 μM, or percentage enzyme inhibition <50% at 10 µM were labelled as INACTIVE)
32 | CC(C)C[C@H](NC(=O)CNC(=O)c1cc(Cl)ccc1Cl)B(O)O [MLN2238] | 0 (compounds with IC50 > 20 μM, percentage inhibition <80% at 20 µM or 50 μM, or percentage enzyme inhibition <50% at 10 µM were labelled as INACTIVE)
33 | C[C@H](NC(=O)/C(C#N)=C/c1cccc(Br)n1)c1ccccc1 [WP1066] | 0 (compounds with IC50 > 20 μM, percentage inhibition <80% at 20 µM or 50 μM, or percentage enzyme inhibition <50% at 10 µM were labelled as INACTIVE)
34 | Nc1ccn([C@H]2C[C@H](O)[C@@H](COP(=O)(O)OP(=O)(O)OP(=O)(O)OP(=O)(O)OC[C@H]3O[C@@H](n4ccc(=O)[nH]c4=O)[C@H](O)[C@@H]3O)O2)c(=O)n1 [denufosol (DB04983), denufosol] | 0 (compounds with IC50 > 20 μM, percentage inhibition <80% at 20 µM or 50 μM, or percentage enzyme inhibition <50% at 10 µM were labelled as INACTIVE)
35 | COc1cc(Br)cc(C=NN2C(=O)c3ccccc3NC2c2cc(Br)cc(OC)c2O)c1O (stereo not drawn) [QZ3] | 0 (compounds with IC50 > 20 μM, percentage inhibition <80% at 20 µM or 50 μM, or percentage enzyme inhibition <50% at 10 µM were labelled as INACTIVE)
36 | CN(C)C(=O)COC(=O)Cc1ccc(OC(=O)c2ccc(NC(=N)N)cc2)cc1 [Camostat] | 0 (compounds with IC50 > 20 μM, percentage inhibition <80% at 20 µM or 50 μM, or percentage enzyme inhibition <50% at 10 µM were labelled as INACTIVE)
37 | CCC(C)C1OC2(CCC1C)CC1CC(CC=C(C)C(OC3CC(OC)C(OC4CC(OC)C(O)C(C)O4)C(C)O3)C(C)C=CC=C3COC4C(O)C(C)=CC(C(=O)O1)C34O)O2 (stereo not drawn) [Ivermectin] | 0 (compounds with IC50 > 20 μM, percentage inhibition <80% at 20 µM or 50 μM, or percentage enzyme inhibition <50% at 10 µM were labelled as INACTIVE)
38 | C=C[C@@H]1C[C@]1(NC(=O)[C@@H]1C[C@@H](Oc2ncc(OC)c3ccc(Cl)cc23)CN1C(=O)[C@@H](NC(=O)OC(C)(C)C)C(C)(C)C)C(=O)NS(=O)(=O)C1CC1 [Asunaprevir] | 0 (compounds with IC50 > 20 μM, percentage inhibition <80% at 20 µM or 50 μM, or percentage enzyme inhibition <50% at 10 µM were labelled as INACTIVE)
39 | Cc1ncccc1NC(=O)Cc1cccc(Cl)c1 [EDG-MED0da5ad92-14] | 0 (compounds with IC50 > 20 μM, percentage inhibition <80% at 20 µM or 50 μM, or percentage enzyme inhibition <50% at 10 µM were labelled as INACTIVE)
